Assay: xn = mol fraction of the nth substance listed
Conditions: 101 kPa

## CCCCCCCCCCCC[N+](CC)(CC)CC.O=S(=O)([N-]S(=O)(=O)C(F)(F)F)C(F)(F)F + O
302.95 K, x2 = 0.1238
  viscosity: 97.2 mPa·s
308.05 K, x2 = 0.1238
  viscosity: 76.6 mPa·s
313.05 K, x2 = 0.1238
  viscosity: 60.7 mPa·s
318.05 K, x2 = 0.1238
  viscosity: 48.8 mPa·s
322.95 K, x2 = 0.1238
  viscosity: 39.19 mPa·s

## CCCCCCCC[N+](CC)(CC)CC.O=S(=O)([N-]S(=O)(=O)C(F)(F)F)C(F)(F)F + O
293.25 K, x2 = 0.1442
  viscosity: 107.8 mPa·s
298.05 K, x2 = 0.1442
  viscosity: 88.1 mPa·s
303.05 K, x2 = 0.1442
  viscosity: 69.8 mPa·s
313.05 K, x2 = 0.1442
  viscosity: 45.09 mPa·s

## CCCCCC[N+](CC)(CC)CC.O=S(=O)([N-]S(=O)(=O)C(F)(F)F)C(F)(F)F + O
298.05 K, x2 = 0.1618
  viscosity: 66.7 mPa·s
303.05 K, x2 = 0.1618
  viscosity: 54 mPa·s
313.05 K, x2 = 0.1618
  viscosity: 36.49 mPa·s
318.05 K, x2 = 0.1618
  viscosity: 30.73 mPa·s
322.95 K, x2 = 0.1618
  viscosity: 25.98 mPa·s
